Results as given in patent US12338203B2 (TAISHO PHARMACEUTICAL CO., LTD., priority 2019, dated 2025).

target: T1, human LPAR1 (Homo sapiens, UniProt Q92633); experiment: Test Example 1: antagonism against response of LPA-induced increase in intracellular Ca2+ concentration in RH7777 cells stably expressing human LPAR1; assay type: cell-based; settings: RH7777 cells stably expressing human LPAR1; Fluo-4 fluorescence, FDSS6000; read-out: IC50 value (concentration producing 50% antagonism against response of LPA-induced increase in intracellular Ca2+ concentration) (converted)
T1 construct: expressed in transfected cells
T1 sequence (Q92633 whole entry): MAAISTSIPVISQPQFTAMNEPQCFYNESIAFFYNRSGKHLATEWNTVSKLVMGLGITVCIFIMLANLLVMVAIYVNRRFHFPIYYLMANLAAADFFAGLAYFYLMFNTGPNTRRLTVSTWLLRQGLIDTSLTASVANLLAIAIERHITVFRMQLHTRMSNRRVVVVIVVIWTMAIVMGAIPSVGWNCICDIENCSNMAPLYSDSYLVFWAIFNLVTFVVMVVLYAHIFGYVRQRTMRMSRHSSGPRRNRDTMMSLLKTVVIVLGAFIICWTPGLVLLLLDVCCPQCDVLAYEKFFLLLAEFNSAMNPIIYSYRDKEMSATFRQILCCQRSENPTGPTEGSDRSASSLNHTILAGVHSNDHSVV
Method in brief: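 RH7777 cells stably transfected with human LPAR1 were preincubated with test compound 30 min at 37 °C in HBSS/20 mM HEPES/probenecid/0.05% BSA buffer, pH 7.4, then LPA-stimulated.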

Row | SMILES | IC50
1 | CCOc1cc([C@@H](C)N(CCO[C@@H](C)c2ccccc2)C(=O)N[C@]2(C(=O)O)C[C@H](OCC)C2)cc(OCC)c1C(C)O (stereo partly shown) [Example 4-134] | 3.92 nM
2 | CCOc1cc([C@@H](C)N(CCCCc2ccccc2)C(=O)NC2(CC(=O)O)CC2)cc(OCC)c1C(C)=O [Example 1-145] | 1.72 nM
3 | CCOc1cc([C@@H](C)N(CCCCc2ccccc2)C(=O)NC2(CC(=O)O)CCOCC2)cc(OCC)c1C(C)=O [Example 1-166] | 11 nM
4 | CCC(c1cc(OC)c(C)c(OC)c1)N(CCCCc1ccccc1)C(=O)NC1(C(=O)O)CC(F)(F)C1 (stereo not shown) [Example 3-3] | 30.1 nM
5 | CCOc1cc([C@@H](C)N(CCO[C@@H](C)c2ccccc2)C(=O)NC2(C(=O)O)CC(OC)C2)cc(OCC)c1C(C)O (stereo partly shown) [Example 4-124] | 5.44 nM
6 | CCOc1cc([C@@H](C)N(CCCCc2ccc(OC)cc2)C(=O)NC2(C(=O)O)CC(F)(F)C2)cc(OCC)c1C [Example 4-19] | 60.8 nM
7 | CCOc1c(C(C)=O)ccc([C@@H](C)N(CCO[C@@H](C)c2ccccc2)C(=O)N[C@]2(C(=O)O)C[C@@H](OCC)C2)c1C [Example 4-140] | 5.67 nM
8 | CCOc1cc(C(C)N(CCCCc2ccccc2)C(=O)NC2(c3nn[nH]n3)CC(F)(F)C2)c(Cl)c(OCC)c1C(C)=O (stereo not shown) [10-8] | 9.3 nM
9 | CCOc1cc(C(C)N(CCCCc2ccccc2)C(=O)NC2(C(=O)O)CC(F)(F)C2)cc(OCC)c1C(=O)NC (stereo not shown) [Example 1-61] | 103 nM
10 | CCOc1cc([C@@H](C)N(CCCCc2ccccc2)C(=O)NC2CC(C(=O)O)C2)cc(OCC)c1C1CC1 (stereo partly shown) [Example 1-130] | 6.48 nM
11 | CCOc1cc(C(C)N(CCCCc2ccccc2)C(=O)NC2(C(=O)O)CC(F)(F)C2)cc(OCC)c1S(C)(=O)=O (stereo not shown) [Example 1-57] | 26.6 nM
12 | CCOc1cc(C(C)N(CCCC(F)(F)c2ccccc2)C(=O)NC2(C(=O)O)CC2)cc(OCC)c1C(C)O (stereo not shown) [Example 4-48] | 2.55 nM
13 | CCOc1cc(C(C)N(CCCCc2ccccc2)C(=O)NC2(C(=O)O)CC(F)(F)C2)cc(OCC)c1C(F)F (stereo not shown) [Example 1-51] | 3.52 nM
14 | CCOc1cc([C@@H](C)N(CCCOc2ccccc2)C(=O)NC2(C(=O)O)CC(F)(F)C2)cc(OCC)c1C [Example 4-98] | 5.48 nM
15 | CCOc1cc(C(C)N(CCCCc2ccccc2)C(=O)NC2(C(=O)O)CC(F)(F)C2)c(C)cc1C(C)=O (stereo not shown) [Example 1-81] | 0.944 nM
16 | CCOc1c(C(C)=O)ccc([C@@H](C)N(CCCC(F)(F)c2ccccc2)C(=O)NC2(C(=O)O)CC2)c1C [Example 4-49] | 4.94 nM
17 | CCOc1cc(C(C)N(CCCCc2ccccc2)C(=O)NC2(C(=O)O)CC(F)(F)C2)cc(OCC)c1C1(O)CC1 (stereo not shown) [Example 1-38] | 5.4 nM

Row | SMILES | IC50
18 | CCOc1cc([C@@H](C)N(CCCCc2ccccc2)C(=O)NC2(C(=O)O)CC(OCC)C2)cc(OCC)c1C(C)=O (stereo partly shown) [Example 1-95] | 3.09 nM
19 | CCOc1cc([C@@H](C)N(CCCCC(C)C)C(=O)NC2(C(=O)O)CC(F)(F)C2)cc(OCC)c1C [Example 4-2] | 8.34 nM
20 | CCOc1c(C(C)=O)ccc([C@@H](C)N(CCCC(F)(F)c2ccccc2)C(=O)NC2(C(=O)O)CCOCC2)c1C [Example 4-78] | 8.44 nM
21 | CCOc1cc([C@@H](C)N(CCCCc2ccccc2)C(=O)NC2(C(=O)O)CCC2)cc(OCC)c1C(C)O (single isomer, unassigned) [Example 1-21] | 3.38 nM
22 | CCOc1cc([C@@H](C)N(CCO[C@@H](C)c2ccccc2)C(=O)NC2(C(=O)O)CC(OC)C2)cc(OCC)c1C(C)O (stereo partly shown) [Example 4-126] | 3.91 nM
23 | CCOc1cc([C@@H](C)N(CCO[C@@H](C)c2ccccc2)C(=O)NC2(C(=O)O)CC(F)(F)C2)cc(OCC)c1C(C)=O [Example 4-117] | 2.52 nM
24 | CCOc1cc([C@@H](C)N(CCCCc2ccccc2)C(=O)NC2(C(=O)O)CCN(C(C)=O)CC2)cc(OCC)c1C [Example 1-160] | 11.9 nM
25 | CCOc1cc([C@@H](C)N(CCO[C@@H](C)c2ccccc2)C(=O)NC2(C(=O)O)CC(F)(F)C2)cc(OCC)c1C1CC1 [Example 4-118] | 0.948 nM
26 | CCOc1cc(C(C)N(CCCCc2ccccc2)C(=O)NC2(C(=O)O)CC(F)(F)C2)cc(COC)c1C (stereo not shown) [Example 1-74] | 7.15 nM
27 | CCOc1cc(C(C)N(CCCCc2ccccc2)C(=O)NC2(C(=O)O)CC(F)(F)C2)cc(OCC)c1C(=O)C(F)(F)F (stereo not shown) [Example 1-59] | 14.9 nM
28 | CCOc1c(C(C)=O)ccc([C@@H](C)N(CCO[C@@H](C)c2ccccc2)C(=O)N[C@]2(C(=O)O)C[C@H](OCC)C2)c1C [Example 4-141] | 7.62 nM
29 | CCOc1cc([C@@H](C)N(CCCC(F)(F)c2ccccc2)C(=O)NC2(C(=O)O)CC(OC)C2)cc(OCC)c1C1CC1 (stereo partly shown) [Example 4-67] | 1.27 nM
30 | CCOc1c(C(C)O)ccc([C@@H](C)N(CCCCc2ccccc2)C(=O)NC2(C(=O)O)CC(F)(F)C2)c1C (single isomer, unassigned) [Example 1-79] | 7.86 nM
31 | CCOc1cc([C@@H](C)N(CCCCc2ccccc2C)C(=O)NC2(C(=O)O)CC(F)(F)C2)cc(OCC)c1C [Example 4-15] | 32.7 nM
32 | CCOc1cc(C(C)N(CCCCc2ccccc2)C(=O)NC2(C(=O)O)CC(F)(F)C2)cc(OCC)c1C(C)C (stereo not shown) [Example 1-49] | 5.21 nM
33 | CCOc1cc([C@@H](C)N(CCCCc2ccccc2)C(=O)NC2(C(=O)O)CC(OC)C2)cc(OCC)c1C(C)O (single isomer, unassigned) [Example 1-88] | 3.35 nM
34 | CCOc1cc(C(C)N(CCCCc2ccccc2)C(=O)NC2(C(=O)O)Cc3ccccc3C2)cc(OCC)c1C (stereo not shown) [Example 1-122] | 12.7 nM

The next lines start with the values.

Row | IC50 | SMILES
35 | 1.78 nM | CCNc1cc([C@@H](C)N(CCCCc2ccccc2)C(=O)NC2(C(=O)O)CCC2)cc(OCC)c1C(C)=O [Example 5-110]
36 | 4.32 nM | COc1cc(OC)cc(C(C)N(CCCCc2ccccc2)C(=O)NC2(C(=O)O)CC(F)(F)C2)c1 (stereo not shown) [Example 5-13]
37 | 4.55 nM | COc1cc(C(C)N(CCOC(C)c2ccccc2)C(=O)N[C@]2(C(=O)O)C[C@@H](OC)C2)c(C)c(OC)c1C (stereo partly shown) [Example 5-160]
38 | 4.19 nM | CCNc1cc(C(C)N(CCCCc2ccccc2)C(=O)NC2(C(=O)O)CC(F)(F)C2)cc(OCC)c1C#N (stereo not shown) [Example 5-114]
39 | 9.55 nM | CCOc1cc(C(C)N(CCCCc2ccccc2)C(=O)NC2(C(=O)NS(C)(=O)=O)CC(F)(F)C2)cc(OCC)c1C(C)O (stereo not shown) [Example 7-2]
40 | 1.01 nM | CCOc1cc(C(C)N(CCOCc2ccccc2)C(=O)NC2(C(=O)O)CC(OCC)C2)c(C)c(OCC)c1C1CC1 (stereo not shown) [Example 5-215]
41 | 3.3 nM | CCOc1cc([C@@H](C)N(CCOCc2ccccc2)C(=O)NC2CCOCC2C(=O)O)c(Cl)c(OCC)c1C(C)O (single isomer, unassigned) [Example 5-69]
42 | 3.36 nM | CCOc1cc(C(C)N(CCCCc2ccccc2)C(=O)NC2(C(=O)O)CC(F)(F)C2)c(F)c(OCC)c1C (stereo not shown) [Example 5-83]
43 | 3.38 nM | CCOc1c(C2CC2)ccc([C@@H](C)N(CCO[C@H](C)c2ccccc2)C(=O)NC2(C(=O)O)CCC2)c1C [Example 4-171]
44 | 6.29 nM | CCOc1c(C)ccc([C@@H](C)N(CCOC(C)c2ccccc2)C(=O)NC2(C(=O)O)CC(F)(F)C2)c1C (stereo partly shown) [Example 4-168]
45 | 30.3 nM | COc1cc([C@@H](C)N(CCO[C@@H](C)c2ccccc2)C(=O)NC2(C(=O)O)CC(OC)C2)cc(OC)c1C(C)=O (stereo partly shown) [Example 5-122]
46 | 4.63 nM | CCOc1cc([C@@H](C)N(CCO[C@@H](C)c2ccccc2)C(=O)N[C@]2(C(=O)O)C[C@H](OC)C2)c(Cl)c(OCC)c1C(C)=O [Example 5-29]
47 | 2.63 nM | CCOc1cc(C(C)N(CCCC(F)(F)c2ccccc2)C(=O)NC2(c3nn[nH]n3)CC2)cc(OCC)c1C(C)=O (stereo not shown) [Example 10-4]
48 | 4.63 nM | CCOc1cc([C@@H](C)N(CCC(F)(F)Cc2ccccc2)C(=O)NC2(C(=O)O)CC(F)(F)C2)c(Cl)c(OCC)c1C(C)=O [Example 5-40]
49 | 3.22 nM | CCOc1c(C(C)=O)ccc([C@@H](C)N(CCO[C@H](C)c2ccccc2)C(=O)NC2(C(=O)O)CCC2)c1C [Example 4-148]
50 | 1.05 nM | CCOc1cc([C@@H](C)N(CCOCc2ccccc2)C(=O)NC2(C(=O)O)CC(OC)C2)c(C)c(OCC)c1C (stereo partly shown) [Example 5-78]
51 | 2.43 nM | CCOc1c(C2CC2)ccc([C@@H](C)N(CCO[C@H](C)c2ccccc2)C(=O)NC2(C(=O)O)CC(F)(F)C2)c1C [Example 4-172]
52 | 0.813 nM | CCOc1cc(C(C)N(CCOCc2ccccc2)C(=O)NC2(C(=O)O)CC(OCC)C2)cc(OCC)c1C1CC1 (stereo not shown) [Example 5-219]
53 | 16.7 nM | CCOc1cc(C(C)N(CCOC(C)c2ccccc2)C(=O)N[C@]2(c3nn[nH]n3)C[C@@H](OC)C2)cc(OCC)c1C(C)O (stereo partly shown) [Example 10-17]
54 | 99.6 nM | CCOc1cc(OCC)cc(C(C)N(CCCCc2ccccc2)C(=O)NC2(C(=O)O)CC(F)(F)C2)c1 (stereo not shown) [Example 5-1, 1-({[1-(3,5-Diethoxyphenyl)Ethyl](4-Phenylbutyl) Carbamoyl}Amino)-3,3-Difluorocyclobutane-1-Carboxylic Acid]
55 | 2.9 nM | CCOc1cc(C(C)N(CCCCc2ccccc2)C(=O)N[C@]2(C(=O)O)C[C@@H](OC)C2)c(C)c(OCC)c1C(C)=O (stereo partly shown) [Example 5-198]
56 | 2.58 nM | COc1cc(C(C)N(CCO[C@@H](C)c2ccccc2)C(=O)NC2(C(=O)O)CC(F)(F)C2)c(Cl)c(OC)c1C1CC1 (stereo partly shown) [Example 5-149]
57 | 8.01 nM | CCOc1cc([C@@H](C)N(CCO[C@@H](C)c2ccccc2)C(=O)N[C@]2(C(=O)O)C[C@H](OC)C2)c(Cl)c(OCC)c1C(C)O (single isomer, unassigned) [Example 5-59]
58 | 3.4 nM | COc1cc(C(C)N(CCO[C@@H](C)c2ccccc2)C(=O)NC2(C(=O)O)CC(F)(F)C2)cc(OC)c1C1CC1 (stereo partly shown) [Example 5-148]
59 | 2.05 nM | CCOC1CC(NC(=O)N(CCOCc2ccccc2)C(C)c2cc(OC)c(C3CC3)c(OC)c2C)(C(=O)O)C1 (stereo not shown) [Example 5-165]
60 | 0.949 nM | CCOc1cc(C(C)N(CCOCc2ccccc2)C(=O)NC2(C(=O)O)CCOCC2)cc(OCC)c1C1CC1 (stereo not shown) [Example 5-224]
61 | 1.93 nM | CCOc1cc([C@@H](C)N(CCOCc2ccccc2)C(=O)N[C@]2(C(=O)O)C[C@H](OC)C2)c(C)c(OCC)c1C(C)=O [Example 5-74]
